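How tested: cells in 96-well plates exposed to compound for 48 hours at five concentrations. At the TGI there is no net growth.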
Assays:
Assay in all cases: inhibition of tumour cell growth, NCI panel, 48 h
NCI-H23 lung = test system: NCI-H23 lung
UO-31 renal = test system: UO-31 renal
HOP-18 NSCLC = test system: HOP-18 NSCLC
M14 melanoma = test system: M14 melanoma
OVCAR-8 ovarian = test system: OVCAR-8 ovarian
SNB-78 CNS = test system: SNB-78 CNS
KM12 colon = test system: KM12 colon
A549 NSCLC = test system: A549 NSCLC
NCI-H522 lung = test system: NCI-H522 lung
A498 renal = test system: A498 renal

| SMILES | TGI (NCI-H23 lung) | TGI (UO-31 renal) | TGI (HOP-18 NSCLC) | TGI (M14 melanoma) | TGI (OVCAR-8 ovarian) | TGI (SNB-78 CNS) | TGI (KM12 colon) | TGI (A549 NSCLC) | TGI (NCI-H522 lung) | TGI (A498 renal) |
| --- | --- | --- | --- | --- | --- | --- | --- | --- | --- | --- |
| COc1cc2oc(-c3ccc(O)cc3)cc(=O)c2c(O)c1C1OC(CO)C(O)C(O)C1O (stereo not given) | > 100 µM | > 100 µM | > 100 µM | > 100 µM | > 100 µM | > 100 µM | > 100 µM | > 100 µM | > 100 µM | > 100 µM |
| C[C@]12Cc3cn[nH]c3C(=O)C1CC[C@@H]1C2CC[C@@]2(C)C1CC[C@@H]2O (stereo not given in full) | > 100 µM | > 100 µM | > 100 µM | > 100 µM | > 100 µM | > 100 µM | > 100 µM | > 100 µM | > 100 µM | > 100 µM |
| O=C1/C(=C\c2ccccc2)CN(C(=O)CCN2CCCCC2)C/C1=C/c1ccccc1 | 4.51 µM | 4.56 µM | 7.37 µM | 4.66 µM | 5.47 µM | 10.6 µM | 1.24 µM | 10.9 µM | 2.31 µM | 7.43 µM |
| COC(=O)CCC(NC(=S)N/N=C/c1cccs1)C(=O)OC (stereo not given) | > 100 µM | > 100 µM | > 100 µM | > 100 µM | > 100 µM | > 100 µM | > 100 µM | > 100 µM | > 100 µM | > 100 µM |
| CC1=C(C(=O)Nc2ccccc2)C(c2ccc(N(C)C)cc2)C(C(=O)Nc2ccccc2)=C(C)N1 | > 100 µM | 65.4 µM | > 100 µM | > 56 µM | > 100 µM | > 100 µM | 27.2 µM | 98.9 µM | 81.2 µM | > 100 µM |
